Test results published in US20110238319A1, “METHOD OF DIAGNOSING A RESPIRATORY DISEASE” (priority 2008, published 2011).

Assays:
guinea pigs [1] = experiment: Lung lavage total and differential cell counts; type: in vivo, guinea pig
Protocol: (§1) Animals were sacrificed with an overdose of urethane (3 gm/kg i.v.). Cytosmear for total and differential cell counts (Diff-Quik®, Baxter Healthcare Corp) were performed on lung lavage ^17. The lungs were removed, inflated and fixed in 3.7% formaldehyde for 24 hours. Airway sections were stained with 2% chromotrope 2R to determine the average number of eosinophils per 10 high power field (#/hpf) as previously described^20.
(§2) A P-value of 0.05 was considered significant.

guinea pigs [2] = experiment: Eosinophil count in cartilaginous airways (histology); type: in vivo, guinea pig; settings: challengeddex vs challenged
Protocol: as §1, §2

[3] = Urine metabolite concentrations by 1H-NMR (Chenomx, PLS-DA); type: in vivo, guinea pig; settings: for urine Fumarate concentration / urine Glycolate concentration / urine Trimethylamine concentration: mean (STD) per title
Protocol: Regarding animal urine data: under anaesthesia, but before performing airway inflammatory measurements, urine samples (1.0-2.0 cc) were collected by trans-abdominal cystocentesis. Regarding human urine data: midstream urine samples were collected in standard 50 ml specimen containers and promptly placed in a freezer at the outpatient clinic (−20° C.).
Within 3 hours each the urine sample was moved to the −80° C. freezer at NANUC (National High Field NMR Centre), University of Alberta. To determine the NMR spectra, the samples were thawed in a biosafety fume hood and a […] aliquot was removed and placed in a 1.5 ml Eppendorff tube followed by the addition of […] of a reference buffer solution (4.9 mM DSS (disodium-2, 2-dimethyl 2-silapentane-5-sulphonate) and 100 mM imidazole in D2O, Sigma-Aldrich). Each sample was brought to a pH of 7.0 +/-0.1 using HCl and NaOH. An uncentrifuged aliquot of 600 μl was taken and transferred to a standard 5 mm glass NMR tube (Wilmad, N.J.). ^1H-NMR spectra were acquired on a 600 MHz Inova spectrometer (Varian Inc, Palo Alto, Calif.) equipped with a 5 mm triple-resonance (HCN) probe with z-axis gradient coil. One-dimensional ^1H-NMR spectra were collected at 25° C. with a tnnoesy pulse sequence (one-dimensional, three pulse NOESY, with a transmitter pre-saturation delay of 900 ms for water suppression during the pre-acquisition delay and 100 ms mixing time) and a spectral width of 7200 Hz. The time-domain data points were 64k complex points, acquisition time was 4s, 90° pulse was 6.8 μs, repetition time was 5 s, with four steady state scans, and 32 acquired scans per FID (Free Induction Decay). The data were apodized with an exponential window function corresponding to a line broadening of 0.5 Hz, zero-filled to 128 k complex points, and Fourier transformed^22.
Quantification of 50-70 easily identifiable metabolites involved in various relevant metabolic pathways was performed using Chenomx NMR Suite Professional software package Version 3.1 (Chenomx Inc., Edmonton, AB)^23. The software contains a database of known metabolites with their referenced spectral resonant frequencies or signatures. The software allows matching of these known resonant frequencies with the observed resonant frequencies of the collected spectra, enabling the qualitative and quantitative analysis of metabolites in urine NMR spectra (FIG. 1A). The methyl groups from DSS produce a resonant singlet, which served as internal standard for spectral chemical shifts (set to 0 ppm) and for quantification. The internal DSS signal was also utilized as the concentration reference (0.49 mM). To correct for dilution, metabolite concentrations were referenced against urinary creatinine^24. This method is capable of providing metabolite concentration accuracies in excess of 90%^23, 25.
To separate groups of animals or patients based on urine metabolite concentrations, the values of the 50-70 metabolite concentrations for each animal/child were log transformed and imported to SIMCA software (SIMCA-P 11, Umetrics, USA). […] To appreciate the impact of a lower concentration metabolite in the model, equal to the change in an abundant metabolite, the methods must detect the relative change in concentration. Thus, metabolite concentrations were mean-centered followed by unit variance scaling (or z-scoring). Thereafter, partial least squares discriminant analysis (PLS-DA) was performed (SIMCA-P 11). PLS-DA determines the relationship between the response vector Y (i.e. subject group) and the matrix X (concentration of each metabolite) by simultaneous projections of both Y and X spaces to a plane. Then seven fold internal crossvalidation was performed by dividing the data into seven parts (by default) and each 1/7th in turn was removed.

guinea pigs [4] = tested on: guinea pigs
Protocol: Female Dunkin-Hartley guinea pigs (GP) were used (specific pathogen-free, 180-450 g, Charles River Laboratories, Saint-Constant, Canada) in accordance with standards established by the University of Alberta Health Sciences Animal Policy and Welfare Committee and Guidelines of the Canadian Council on Animal Care. All guinea pigs were allowed to adapt to the new environment for at least one week before physiologic studies. […] Airway function and inflammation were assessed four days after OVA challenge or 21 days after sensitization alone.
Guinea Pigs were anesthetized with urethane (1.5 g/kg i.p.), tracheostomized, and ventilated after paralysis with succinylcholine chloride (Sigma-Aldrich) (10 μg/kg/min, i.v.). Pulmonary inflation pressure (Ppi) was measured using (Powerlab, Adlnstruments, Colorado Springs, USA) as previously described^17. […] The resulting bronchoconstriction was recorded as increases in Ppi.
The results are expressed as mean and standard error of the mean (SEM) and standard deviation (SD) respectively. A P-value of 0.05 was considered significant.

With C[C@@H]1C[C@H]2[C@@H]3CCC4=CC(=O)C=C[C@]4(C)[C@@]3(F)[C@@H](O)C[C@]2(C)[C@@]1(O)C(=O)CO [Dex, dexamethasone] the “total cells in lung lavage” value (guinea pigs [1]; challengeddex vs challenged) was “remained higher similar to challenge”, the “lymphocytes in lung lavage” value (guinea pigs [1]; challengeddex vs challenged, p<0.05) was “significantly lower” and the “total cell counts in lung lavage” value (guinea pigs [1]; controldex vs control and sensitized, dexamethasone 6.5 μg/kg i.p. daily for three days) was “no significant difference”. For the same compound, the “macrophage values in lung lavage” value (guinea pigs [1]; controldex vs control, p=0.03) was “higher compared with control”, the “eosinophils in cartilaginous airways” value (guinea pigs [2]) was “remained similar to challenged” and the “urine 1-Methyl-Histamine concentration” value ([3]; Challenged/Dex group (n = 12)) was 0.044(0.002-0.055) mmol/mmol creatinine. For the same compound, the “urine 2-OH-Isobutyrate concentration” value ([3]; Challenged/Dex group (n = 12)) was 0.043(0.031-0.061) mmol/mmol creatinine, the “urine 2-Oxoglutarate concentration” value ([3]; Challenged/Dex group (n = 12)) was 0.006(0.005-0.012) mmol/mmol creatinine and the “urine 3-Methyl-Adipate concentration” value ([3]; Challenged/Dex group (n = 12)) was 0.011(0.009-0.017) mmol/mmol creatinine. The “urine 3-OH-3-Methyl-Glutarate concentration” value ([3]; Challenged/Dex group (n = 12)) was 0.010(0.006-0.014) mmol/mmol creatinine, the “urine 3-OH-Butyrate concentration” value ([3]; Challenged/Dex group (n = 12)) was 0.018(0.013-0.029) mmol/mmol creatinine and the “urine 4-Aminohippurate concentration” value ([3]; Challenged/Dex group (n = 12)) was 0.010(0.005-0.010) mmol/mmol creatinine. The “urine 4-OH-Phenylacetate concentration” value ([3]; Challenged/Dex group (n = 12)) was 0.122(0.068-0.196) mmol/mmol creatinine, the “urine 4-Pyridoxate concentration” value ([3]; Challenged/Dex group (n = 12)) was 0.009(0.005-0.010) mmol/mmol creatinine and the “urine Acetate concentration” value ([3]; Challenged/Dex group (n = 12)) was 0.118(0.081-0.203) mmol/mmol creatinine. The “urine Acetoacetate concentration” value ([3]; Challenged/Dex group (n = 12)) was 0.007(0.005-0.010) mmol/mmol creatinine, the “urine Acetone concentration” value ([3]; Challenged/Dex group (n = 12)) was 0.005(0.003-0.009) mmol/mmol creatinine and the “urine Adenosine concentration” value ([3]; Challenged/Dex group (n = 12)) was 0(0-0.001) mmol/mmol creatinine. The “urine Carnitine concentration” value ([3]; Challenged/Dex group (n = 12)) was 0.010(0.010-0.015) mmol/mmol creatinine, the “urine Creatine concentration” value ([3]; Challenged/Dex group (n = 12)) was 0.026(0.016-0.033) mmol/mmol creatinine and the “urine Dimethylamine concentration” value ([3]; Challenged/Dex group (n = 12)) was 0.122(0.103-0.146) mmol/mmol creatinine. The “urine Glucose concentration” value ([3]; Challenged/Dex group (n = 12)) was 0.155(0.100-0.334) mmol/mmol creatinine, the “urine Isobutyrate concentration” value ([3]; Challenged/Dex group (n = 12)) was 0(0-0) mmol/mmol creatinine and the “urine Kynurenate concentration” value ([3]; Challenged/Dex group (n = 12)) was 0.006(0.004-0.008) mmol/mmol creatinine. The “urine Malonate concentration” value ([3]; Challenged/Dex group (n = 12)) was 0.014(0.010-0.018) mmol/mmol creatinine, the “urine Methylamine concentration” value ([3]; Challenged/Dex group (n = 12)) was 0.033(0.026-0.069) mmol/mmol creatinine and the “urine Myolnositol concentration” value ([3]; Challenged/Dex group (n = 12)) was 0.035(0.020-0.080) mmol/mmol creatinine. The “urine Oxalacetate concentration” value ([3]; Challenged/Dex group (n = 12)) was 0.249(0.197-0.323) mmol/mmol creatinine, the “urine Phenylacetylglycine concentration” value ([3]; Challenged/Dex group (n = 12)) was 0.140(0.095-0.213) mmol/mmol creatinine and the “urine Phenylalanine concentration” value ([3]; Challenged/Dex group (n = 12)) was 0.022(0.016-0.042) mmol/mmol creatinine. The “urine Sarcosine concentration” value ([3]; Challenged/Dex group (n = 12)) was 0.010(0.007-0.016) mmol/mmol creatinine, the “urine Succinate concentration” value ([3]; Challenged/Dex group (n = 12)) was 0.006(0.005-0.008) mmol/mmol creatinine and the “urine Trigonelline concentration” value ([3]; Challenged/Dex group (n = 12)) was 0.069(0.063-0.091) mmol/mmol creatinine. The “urine Trimethyl-N-Oxide concentration” value ([3]; Challenged/Dex group (n = 12)) was 0.045(0.027-0.062) mmol/mmol creatinine, the “urine Tyrosine concentration” value ([3]; Challenged/Dex group (n = 12)) was 0.024(0.016-0.032) mmol/mmol creatinine and the “urine Fumarate concentration” value ([3]; Challenged/Dex group (n = 12)) was 0(0-0) mmol/mmol creatinine. For the same compound, the “urine Glycolate concentration” value ([3]; Challenged/Dex group (n = 12)) was 0(0-0) mmol/mmol creatinine, the “urine Trimethylamine concentration” value ([3]; Challenged/Dex group (n = 12)) was 0(0-0) mmol/mmol creatinine and the “urine 1-Methyl-Histamine concentration” value ([3]; Control/Dex group (n = 4)) was 0.015(0.008-0.023) mmol/mmol creatinine. The “urine 2-OH-Isobutyrate concentration” value ([3]; Control/Dex group (n = 4)) was 0.043(0.038-0.045) mmol/mmol creatinine, the “urine 2-Oxoglutarate concentration” value ([3]; Control/Dex group (n = 4)) was 0.004(0.003-0.005) mmol/mmol creatinine and the “urine 3-Methyl-Adipate concentration” value ([3]; Control/Dex group (n = 4)) was 0.015(0.008-0.018) mmol/mmol creatinine. For the same compound, the “urine 3-OH-3-Methyl-Glutarate concentration” value ([3]; Control/Dex group (n = 4)) was 0.004(0.003-0.005) mmol/mmol creatinine, the “urine 3-OH-Butyrate concentration” value ([3]; Control/Dex group (n = 4)) was 0.041(0.029-0.048) mmol/mmol creatinine and the “urine 4-Aminohippurate concentration” value ([3]; Control/Dex group (n = 4)) was 0.090(0.040-0.115) mmol/mmol creatinine. For the same compound, the “urine 4-OH-Phenylacetate concentration” value ([3]; Control/Dex group (n = 4)) was 0.101(0.095-0.130) mmol/mmol creatinine, the “urine 4-Pyridoxate concentration” value ([3]; Control/Dex group (n = 4)) was 0.004(0.003-0.005) mmol/mmol creatinine and the “urine Acetate concentration” value ([3]; Control/Dex group (n = 4)) was 0.137(0.098-0.180) mmol/mmol creatinine. For the same compound, the “urine Acetoacetate concentration” value ([3]; Control/Dex group (n = 4)) was 0.011(0.009-0.012) mmol/mmol creatinine, the “urine Acetone concentration” value ([3]; Control/Dex group (n = 4)) was 0.004(0.003-0.005) mmol/mmol creatinine and the “urine Adenosine concentration” value ([3]; Control/Dex group (n = 4)) was 0.002(0-0.003) mmol/mmol creatinine. The “urine Carnitine concentration” value ([3]; Control/Dex group (n = 4)) was 0.140(0.120-0.175) mmol/mmol creatinine, the “urine Creatine concentration” value ([3]; Control/Dex group (n = 4)) was 0.039(0.035-0.045) mmol/mmol creatinine and the “urine Dimethylamine concentration” value ([3]; Control/Dex group (n = 4)) was 0.096(0.087-0.110) mmol/mmol creatinine. For the same compound, the “urine Isobutyrate concentration” value ([3]; Control/Dex group (n = 4)) was 0(0-0.50) mmol/mmol creatinine, the “urine Kynurenate concentration” value ([3]; Control/Dex group (n = 4)) was 0.005(0.004-0.010) mmol/mmol creatinine and the “urine Malonate concentration” value ([3]; Control/Dex group (n = 4)) was 0.016(0.011-0.020) mmol/mmol creatinine. The “urine Methylamine concentration” value ([3]; Control/Dex group (n = 4)) was 0.009(0.009-0.014) mmol/mmol creatinine, the “urine Myolnositol concentration” value ([3]; Control/Dex group (n = 4)) was 0.410(0.380-0.570) mmol/mmol creatinine and the “urine Oxalacetate concentration” value ([3]; Control/Dex group (n = 4)) was 0.237(0.228-0.247) mmol/mmol creatinine. The “urine Phenylacetylglycine concentration” value ([3]; Control/Dex group (n = 4)) was 0.024(0.022-0.026) mmol/mmol creatinine, the “urine Phenylalanine concentration” value ([3]; Control/Dex group (n = 4)) was 0.011(0.009-0.013) mmol/mmol creatinine and the “urine Sarcosine concentration” value ([3]; Control/Dex group (n = 4)) was 0.004(0.003-0.005) mmol/mmol creatinine. For the same compound, the “urine Succinate concentration” value ([3]; Control/Dex group (n = 4)) was 0.013(0.011-0.014) mmol/mmol creatinine, the “urine Succinylacetone concentration” value ([3]; Control/Dex group (n = 4)) was 0.004(0.003-0.005) mmol/mmol creatinine and the “urine Trigonelline concentration” value ([3]; Control/Dex group (n = 4)) was 0.053(0.044-0.059) mmol/mmol creatinine. The “urine Trimethyl-N-Oxide concentration” value ([3]; Control/Dex group (n = 4)) was 0.089(0.076-0.107) mmol/mmol creatinine, the “urine Tyrosine concentration” value ([3]; Control/Dex group (n = 4)) was 0.027(0.016-0.042) mmol/mmol creatinine and the “urine Fumarate concentration” value ([3]; Control/Dex group (n = 4)) was 0(0-0) mmol/mmol creatinine. For the same compound, the “urine Glycolate concentration” value ([3]; Control/Dex group (n = 4)) was 0(0-0) mmol/mmol creatinine, the “urine Trimethylamine concentration” value ([3]; Control/Dex group (n = 4)) was 0(0-0) mmol/mmol creatinine and the urine phenylacetylglycine level ([3]; challenged animals after dexamethasone treatment) was “returned to control levels”. For the same compound, the urine sarcosine level ([3]; challenged guinea pig after steroid treatment) was “decreased”, the “urine metabolite profile by PLS-DA” value ([3]; challenged vs challengeddex, control vs controldex) was “altered urine metabolite profile” and the urine myo-inositol level ([3]; challengeddex among guinea pig groups) was “highest”. The “urinary excretion of 2-hydroxyisobutyrate” value ([3]; challengeddex vs challenged) was “levels rose”, the “urinary excretion of glucose” value ([3]; challengeddex vs challenged) was “levels rose” and the urine phenylacetylglycine level ([3]; dexamethasone-treated controls vs control) was “significantly lower levels”. The “bronchoconstriction response to histamine (Ppi)” value (guinea pigs [4]; challengeddex compared to challenged alone, dexamethasone 6.5 μg/kg i.p. 1 hour after challenge then daily for two days, p<0.05) was “diminished response”.

With NCCc1c[nH]cn1 [histamine] the “bronchoconstriction measured by increasing Ppi” value (guinea pigs [4]; histamine 1-20 μg/kg i.v.) was “dose-dependent bronchoconstriction”.
